Molecules are shown by their SMILES. Values joined by “and” are separate entries in the source; they are usually repeats but may differ in a detail not shown here. Identical values can stand only once.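 These data come from cells grown in 96-well plates and exposed to compound for 48 hours at five concentrations. Abbreviation: GI50, concentration required for 50% inhibition of growth. TGI: total growth inhibition.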

Experiment in all cases: NCI-60 cell line screen, 48 h
The test system of experiment [1] is MDA-N.
For experiment [2], the system named is DMS 114 small cell lung.
The test system of experiment [3] is XF 498 CNS.
In experiment [4] the test system is RXF-631 renal.
Experiment [5] relates to HOP-18 NSCLC.
Experiment [6] concerns LXFL 529 NSCLC.
Experiment [7] deals with DMS 273 small cell lung.
Experiment [8] concerns SNB-78 CNS.
Experiment [9] relates to DLD-1 colon.

As for `O=c1ssc(Cl)c1Cl`, the TGI in experiment [1] was greater than 10 µM.

Consider `COc1ccc(C2C(C)C(=O)C(C)C(c3ccc(OC)cc3)N2N=O)cc1` (stereo unspecified), for which the GI50 was greater than 1000 µM in experiment [2]; 27 µM and 39.1 µM in experiment [3]; 270 µM in experiment [4]; greater than 1000 µM in experiment [5]; greater than 1000 µM in experiment [6]; 609 µM in experiment [7]. Moreover, the GI50 in experiment [8] was > 46.2 µM and 96.1 µM; in experiment [9], greater than 750 µM. In addition, the TGI in [2] is greater than 1000 µM; in experiment [3] it was 69.7 µM and 160 µM and > 460 µM; in experiment [1] it was 381 µM; in [4], 750 µM and 281 µM; in [5], greater than 1000 µM; in experiment [6] it was greater than 1000 µM. For the same molecule, the TGI in experiment [7] is 750 µM and > 1000 µM; in [8], > 78.2 µM and 750 µM and > 902 µM; in experiment [9], greater than 1000 µM.

Regarding `OCCN1CCN2C=C(C3CCCC4N(CCO)CCN34)CCC21` (stereo unspecified), the TGI in [2] is 72.5 µM; in experiment [3], greater than 100 µM; in experiment [5], greater than 100 µM; in experiment [6] it was greater than 100 µM; in [7] it was greater than 100 µM; in [8], greater than 100 µM. In addition, in [9], the TGI is greater than 100 µM.

Take `NN1C(=O)C(CCO)S/C1=N/N=C1/SC(CCO)C(=O)N1N` (stereo unspecified): the TGI in experiment [2], in experiment [3], in experiment [5], in [6], in experiment [8] and in experiment [9] was greater than 100 µM each time.

For the molecule `N/N=c1\c2ccccc2c2cc3c(cc12)/c(=N/N)c1ccccc13`, the TGI in experiment [2], in experiment [4], in [5], in experiment [6], in [7] and in [8] was greater than 100 µM in each case. In [9], this molecule came in with a TGI greater than 100 µM.

Take `CC#CC1C2CCCC1(CSc1ccccc1)NC(=O)O2` (stereo unspecified): the TGI in experiment [2], in experiment [3], in experiment [4], in [5], in [6] and in experiment [7] was greater than 100 µM in each case. In addition, the TGI in experiment [8] and in [9] was greater than 100 µM in each case.

Take `CC(=O)[CH-]C(=O)c1ccccc1.CC(=O)[CH-]C(=O)c1ccccc1.C[C@]12CCC(=O)C=C1CC[C@@H]1C2CC[C@@]2(C)C1CC[C@@H]2[O-].C[C@]12CCC(=O)C=C1CC[C@@H]1C2CC[C@@]2(C)C1CC[C@@H]2[O-].Cl.[Ti+4]` (stereo partly specified): the GI50 in experiment [5] was 28.6 µM; in experiment [6], 24.3 µM; in experiment [7] it was 21.2 µM; in experiment [9], 18.3 µM. The TGI in experiment [5] is 91.4 µM; in experiment [6], 87.3 µM; in [7] it was 69.5 µM; in [9], 45.9 µM.

As for `c1ccc2c(c1)N=C(c1cccc3ccccc13)CC(c1ccc3c(c1)OCO3)S2` (stereo unspecified), the TGI in experiment [3], in [4], in [5], in experiment [6], in [7] and in experiment [8] was greater than 100 µM in each case. The molecule further yielded a TGI in experiment [9] greater than 100 µM.

As to `O=C(/C(=C\c1ccc(Cl)cc1)c1ccccc1)c1ccccc1`, the TGI was greater than 100 µM in experiment [2]; 95.5 µM in [3]; greater than 100 µM in [5]; greater than 100 µM in [6]; greater than 100 µM in [8]; greater than 100 µM in [9].

Regarding `CC(C)NC(=O)CCN(C(=O)O)S(=O)(=O)c1ccc(NC(=O)c2ccccc2)cc1`, the TGI in experiment [2] is greater than 54.3 µM; in experiment [3] it was greater than 100 µM; in experiment [4], greater than 100 µM; in experiment [5] it was greater than 100 µM; in experiment [6], greater than 100 µM; in [7] it was greater than 56.7 µM. Also, the TGI in [8] is greater than 100 µM; in experiment [9], greater than 72.6 µM.

`Cc1ccc(NC(=O)/C(Cl)=C(/Cl)C(=O)O)cc1`: the TGI was determined as 34.2 µM in experiment [2]; 49.8 µM in experiment [4]; 34.7 µM in experiment [5]; 26.6 µM in [6]; 41.7 µM in [7]; 53.4 µM in [8]. The same molecule returned a TGI in [9] of 33.5 µM.

For the molecule `CC(=O)Nc1ccc(COC(O)CN2CCCCC2)cc1[N+](=O)[O-]` (stereo unspecified), the TGI in experiment [1] is greater than 100 µM.

Turning to `Cc1ccc(S(=O)OCC23CC4CC(CC(C4)C2)C3)cc1` (stereo unspecified), the TGI in experiment [3], in experiment [5], in experiment [6], in [7], in experiment [8] and in [9] was greater than 100 µM throughout.

In experiment [1], `CC(C)(C)c1c2c(c(C(C)(C)C)c3c1OCN(Cc1ccccc1)C3)OCN(Cc1ccccc1)C2` yielded a TGI of 30.3 µM.

Regarding `CN(Cc1cc(Cl)cc(Cl)c1O)Cc1c(O)ccc2ccccc12`, in [1], the TGI was found to be 66.1 µM.

As for `O=C(COC(=O)c1cccc2c(=O)c3ccccc3[nH]c12)Nc1ccc(C(=O)O)cc1`, the TGI is greater than 100 µM in experiment [2]; 95.6 µM in experiment [3]; greater than 100 µM in experiment [4]; greater than 100 µM in [5]; greater than 100 µM in experiment [8]; greater than 100 µM in [9].

Consider `NCCNCc1c2ccccc2c(CNCCN)c2ccccc12`, for which the TGI in experiment [2] is 33.1 µM; in [4] it was greater than 100 µM; in experiment [5], 90.1 µM; in experiment [6], 22.1 µM; in experiment [8] it was 82.1 µM; in [9], greater than 100 µM.

On to `CS(=O)(=O)CC(=O)c1ccccc1`, for which, in experiment [1], the TGI was greater than 100 µM.

`Cc1cc(C)nc(NS(=O)(=O)c2ccc(Nc3c4ccc(Cl)cc4nc4c(C(=O)NCCN(C)C)cccc34)cc2)n1`: the TGI in experiment [2], in experiment [3], in [4], in experiment [6], in [7] and in [8] was greater than 100 µM each time. In [9], this molecule had a TGI greater than 100 µM.

The molecule `NCOC(=O)Cc1ccc(Br)cc1` showed a TGI in experiment [1] greater than 100 µM.

In the case of `COC(=O)C(Cc1nc2ccccc2nc1C)/C(=N\NC(N)=O)C(=O)Nc1cccc([N+](=O)[O-])c1` (stereo unspecified), the TGI in [2], in experiment [3], in experiment [4], in experiment [5], in [6] and in [8] was greater than 100 µM in each case. For the same molecule, the TGI in experiment [9] was greater than 100 µM.

In the case of `COc1ccccc1NC(=O)c1nc2ccc([N+](=O)[O-])cc2nc1C`, the TGI is greater than 100 µM in experiment [2]; 73.8 µM in experiment [3]; 39.9 µM in experiment [5]; greater than 100 µM in experiment [6]; greater than 100 µM in [7]; greater than 100 µM in experiment [9].

For `O=C1c2cc([N+](=O)[O-])ccc2-c2ccc3c4ccc5c6c(ccc(c7ccc1c2c73)c64)C(=O)c1cc([N+](=O)[O-])ccc1-5`, in [1], the TGI was greater than 100 µM.

For `CCNC(=O)O/N=C1\CCC2[C@@H]3CC=C4C[C@@H](OC5CCCCO5)CC[C@]4(C)C3CC[C@]12C` (stereo partly specified), the TGI in experiment [4] was 22.4 µM; in experiment [5], 4.28 µM; in experiment [6], 2.43 µM; in experiment [8], 6.42 µM; in [9], greater than 100 µM.

For `Clc1ccc(-c2c(C3=NCCCN3)nnn2-c2ccccc2)cc1`, the TGI in [2], in [3], in experiment [4], in experiment [5], in experiment [6] and in experiment [7] was greater than 100 µM in each case. Besides, the TGI in [8] and in [9] was greater than 100 µM each time.

Turning to `NCC1OC(OC2C(CO)OC(OC3C(O)C(N)CC(N)C3OC3OC(CO)C(O)CC3N)C2O)C(N)C(O)C1OC1OC(CO)C(O)C(O)C1O` (stereo unspecified), in [1], the GI50 is greater than 50 µg/mL and the TGI is greater than 50 µg/mL.

Molecule `Cc1cc(C(C)(C)C)cc(CNC2CCCCC2)c1O` yielded a TGI in [1] of 29.9 µM.

As for `C=C[C@]1(C)CCC2=C(CCC3C2(C)CCC[C@@]3(C)COC(C)=O)C1` (stereo partly specified), the TGI was found to be 37.4 µM in experiment [2]; 34.4 µM in experiment [3]; 38.1 µM in experiment [4]; 70.1 µM in [5]; 32.5 µM in experiment [6]; 36.4 µM in [8]. In experiment [9], this molecule returned a TGI of 34.7 µM.

As to `Cc1c(O)c2c(c(O)c1Br)C(=O)C=CC2=O`, in experiment [1], the GI50 is 630 nM; the TGI was 0.615 µM and 2.08 µM.

As for `O=C1CCSC2=C1SCc1sccc12`, the TGI in experiment [2], in [3], in experiment [6], in [8] and in [9] was greater than 100 µM each time.

Molecule `Cc1ccc2c(c1)S(=O)(=O)c1ccc3ccccc3c1N2` displayed a TGI in [1] greater than 100 µM.

`COc1ccc2nc3cc(Cl)ccc3c(Sc3ccc([N+](=O)[O-])cc3)c2c1`: the GI50 in [2], in experiment [3], in experiment [4], in experiment [5], in experiment [6] and in [7] was greater than 100 µM each time. For the same molecule, the GI50 in [9] was greater than 100 µM. For the same molecule, the TGI in experiment [2], in experiment [3], in experiment [4], in [5], in experiment [6] and in [7] was greater than 100 µM throughout. The TGI is greater than 10 µM in [8] and greater than 100 µM in experiment [9].

`C=C(C(=C)P(=S)(c1ccccc1)c1ccccc1)P(=S)(c1ccccc1)c1ccccc1`: the TGI in experiment [2], in [3], in experiment [5], in [6], in experiment [7] and in experiment [8] was greater than 100 µM in each case.

For the molecule `Nc1cc(=O)n(-c2ccccc2)c(=S)n1-c1ccccc1`, the TGI in experiment [2], in experiment [3], in experiment [6], in [7], in experiment [8] and in experiment [9] was greater than 100 µM each time.

For the molecule `O=C(O)c1ccc(C(=O)O)c(C(=O)Nc2ccc3c(c2)C(=O)c2ccccc2-3)c1`, the TGI in experiment [1] was greater than 100 µM.

Take `COc1ccc(C(=O)C(c2ccc(OCc3ccccc3)cc2)c2ccc(OCc3ccccc3)cc2)cc1`: the TGI in [2], in [3], in experiment [4], in [7], in experiment [8] and in experiment [9] was greater than 100 µM each time.

The values above are taken from PubChem BioAssay (NCI).
